One data set relates to HepG 2.2.15 cells. In words: Cytotoxicity in HepG 2.2.15 cells (cell morphology under microscope after 8 days, Reed&Muench). Format: cell-based. Conditions: pathological change of cells after 8 days. The procedure: (§1) The antiviral test was carried out in a 96-cell microtiter plate. The first column of the plate only contained a culture medium and HepG 2.2.15 cells, as a blank control.
(§2) First, a stock solution ([…]) of a test compound was dissolved in DMSO, and further diluted with a culture medium for growth of HepG 2.2.15 cells. Usually, the compound of the present invention was transferred by suction at a test concentration of 100 μg/ml (the first test concentration) to each cell of the second column of the microtiter plate, and then diluted with the culture medium for growth plus 2% fetal bovine serum (25 μL), by 2 times once, up to 2^10 times at the maximum.
(§3) Then, 225 μL of a suspension of HepG 2.2.15 cells in the culture medium for growth plus 2% fetal bovine serum (5×10^4 cells/ml) was added to each cell of the 96-cell microtiter plate.
(§4) The test mixture was incubated under the conditions of 37° C., 5% CO2 for 4 days. Then, the supernatant was removed by suction, and to each cell 225 μL of a new-prepared culture medium for growth was added. Again, the compound of the present invention was added with a solution of 25 μL. The obtained mixture was further incubated for 4 days.
Prior to collection of the supernatant for determination of the antiviral effect, the change in cytotoxicity of HepG 2.2.15 cells was investigated by using optical microscopic technique or biochemical detection method (e.g., Alamar Blue staining or Trypan Blue staining).
Determination of Cytotoxicity
The substance-induced change in cytotoxicity in HepG 2.2.15 cells or in inhibition of the cells could be determined by using, e.g., optical microscopic technique, and expressed by the change of cell morphology. Such substance-induced changes, e.g., cell lysis, cavity formation or change in cell morphology, in HepG 2.2.15 cells were apparent as compared to the untreated cells.
Taking the observed pathological change of cells as index, the pathological change of cells was observed under microscope after 8 days, a complete destroy being indicated as 4; 75% being indicated as 3; 50% being indicated as 2; 25% being indicated as 1; and no pathological change being indicated as 0. The average extents of pathological change of cells and the inhibition percentages at various concentrations were calculated. According to Reed&Muench method, a half toxic concentration (TC50) and a maximum non-toxic concentration (TC0) were calculated.
TC50 refers to the concentration of the compound of the present invention when 50% of cells have a similar morphology to the corresponding cells as a control.

For the next data set, the system named is HBV DNA. Put plainly: Antiviral activity: inhibition of HBV DNA in supernatant of HepG 2.2.15 cells (dot blot hybridization). The note with it: Hepatitis B virus, HepG2.2.15, 192 h, 8 days incubation, HB-specific DNA in supernatant, read-out: IC50 (inhibitory effect on HBV DNA). Format: cell-based. The procedure:
The antiviral effect of the compound of the present invention is determined according to the methods described by Sells, et al (M. A. Sells, M. L. Chen, G. Proc. Natl. Acad. Sci. 1987, 84, 1005-1009) and Korba, et al (B. E. Korba, J. L. Gerin Antiviral Research 1992, 19, 55-70).
as §1, §2, §3, §4
Thereafter, the supernatant was collected, and sucked in vacuum to a 96-cell dot blot chamber covered by nylon film (used in accordance with the instructions for use provided by the manufacturer).
Determination of Antiviral Activity
After the supernatant was transferred onto the nylon film of the dot blot device (see the contents hereinabove), the supernatant of HepG 2.2.15 cells was denaturated (1.5 M NaCl/0.5 M NaOH), neutralized (3 M NaCl/0.5 M Tris. HCl, pH 7.5) and washed (2×SSC). Then, the filter film was kept at 120° C. for 2-4 hours, whereby DNA was baked on the filter film.
Usually, viral DNA of HepG 2.2.15 cells treated on the nylon film was detected by using a non-radioactive digoxigenin labeled HB-specific DNA probe. Wherein, each time the probe was labeled with digoxigenin, purified and hybridized according to the directions for use given by the manufacturer.
Briefly, pre-hybridization and hybridization were conducted with 5×SSC, 1× blocking agent, 0.1% N-lauroyl sarcosine, 0.02% SDS and 100 μg sperm DNA of black carp. After pre-hybridization at 60° C. for 30 min, a specific hybridization (at 60° C. for 14 hr) was conducted with 20-40 ng/ml digoxigenin labeled denaturalized HBV specific DNA. Then, the film was washed, followed by HBV DNA detection with digoxigenin antibody.
The immunology detection of digoxigenin labeled DNA was conducted according to the directions for use given by the manufacturer.
Briefly speaking, the film was washed and pre-hybridized with a blocking agent (in accordance with the directions for use given by the manufacturer), and then hybridized with an anti-DIG antibody that had been previously coupled onto an alkaline phosphatase for 30 min. After washing, an alkaline phosphatase substrate CSPD was added, and cultured together with the filter for 5 min, and then wrapped in a plastic film, followed by further culturing at 37° C. for 15 min. The filter was exposed to X-ray, and the chemical luminous signal (culturing for 10 min to 2 hr according to the signal strength) of HB-specific DNA on the film was detected, whereby a half inhibitory concentration (IC50) was calculated.
The half inhibitory concentration (IC50) refers to the concentration of the compound of the present invention which reduces the HB-specific band by 50% as compared with the untreated sample.

In turn, `CCOC(=O)C1=C(C)NC(c2cscn2)=NC1c1ccc(F)cc1Cl` (stereo not shown) [Example 1, ethyl 2-(thiazol-4-yl)-4-(2-chloro-4-fluorophenyl)-6-methyl-1,4-dihydro-pyrimidin-5-carboxylate] showed a melting point of 140 to 142 °C. The compound also gave a TD50 in the data set on HepG 2.2.15 cells of 50.59 µM. Besides, in the data set on HBV DNA, the concentration for half-maximal inhibition (IC50) was determined as 3.35 µM.
For the compound `COC(=O)C1=C(C)NC(c2csc(C)n2)=NC1c1ccc(F)cc1Cl` (stereo not shown) [Example 29, methyl 2-(2-methylthiazol-4-yl)-4-(2-chloro-4-fluorophenyl)-6-methyl-1,4-dihydro-pyrimidin-5-carboxylate], in the data set with HepG 2.2.15 cells, the TD50 was found to be 56.34 µM. Moreover, in the data set on HBV DNA, the IC50 worked out at 8.42 µM.
`CCOC(=O)C1=C(C)NC(c2csc(Cl)n2)=NC1c1ccc(F)cc1Cl` (stereo not shown) [Example 33, ethyl 2-(2-chlorothiazol-4-yl)-4-(2-chloro-4-fluorophenyl)-6-methyl-1,4-dihydro-pyrimidin-5-carboxylate] showed a melting point of 141 to 143 °C. Moreover, the TD50 in the data set with HepG 2.2.15 cells is 7.17 µM. Besides, the IC50 in the data set with HBV DNA came to 0.87 µM.
In the case of `COC(=O)C1=C(C)NC(c2csc(Cl)n2)=NC1c1ccc(F)cc1Cl` (stereo not shown) [Example 34, methyl 2-(2-chlorothiazol-4-yl)-4-(2-chloro-4-fluorophenyl)-6-methyl-1,4-dihydro-pyrimidin-5-carboxylate], the melting point fell in the range of 160 to 162 °C. In the data set on HepG 2.2.15 cells, this compound showed a TD50 of 12.35 µM. The concentration for half-maximal inhibition (IC50) in the data set on HBV DNA was found to be 2.08 µM.
As for `COC(=O)C1=C(C)NC(c2scnc2C)=NC1c1ccc(F)cc1Cl` (stereo not shown) [Example 37, methyl 2-(4-methylthiazol-5-yl)-4-(2-chloro-4-fluorophenyl)-6-methyl-1,4-dihydro-pyrimidin-5-carboxylate], the melting point fell in the range of 145 to 147 °C. The compound further gave a TD50 in the data set on HepG 2.2.15 cells of 101.42 µM. Also, in the data set on HBV DNA, the IC50 turned out to be 14.6 µM.
In turn, `CCOC(=O)C1=C(C)NC(c2scnc2C)=NC1c1ccc(F)cc1Cl` (stereo not shown) [Example 38, ethyl 2-(4-methylthiazol-5-yl)-4-(2-chloro-4-fluorophenyl)-6-methyl-1,4-dihydro-pyrimidin-5-carboxylate] returned a melting point of 134 to 139 °C. In the data set on HepG 2.2.15 cells, this compound came in with a TD50 of 54.33 µM. For the same compound, in the data set with HBV DNA, the IC50 turned out to be 2.22 µM.
As to `COC(=O)C1=C(C)NC(c2sc(C)nc2C)=NC1c1ccc(F)cc1Cl` (stereo not shown) [Example 39, methyl 2-(2,4-dimethylthiazol-5-yl)-4-(2-chloro-4-fluorophenyl)-6-methyl-1,4-dihydro-pyrimidin-5-carboxylate], the melting point lay within 116 to 118 °C. The same compound returned a TD50 in the data set on HepG 2.2.15 cells of 165.90 µM. The half-maximal inhibitory concentration (IC50) in the data set on HBV DNA was determined as 3.2 µM.
The matching figures for `CCOC(=O)C1=C(C)NC(c2sc(C)nc2C)=NC1c1ccc(F)cc1Cl` (stereo not shown) [Example 40, ethyl 2-(2,4-dimethylthiazol-5-yl)-4-(2-chloro-4-fluorophenyl)-6-methyl-1,4-dihydro-pyrimidin-5-carboxylate]: 117 to 119 °C, 157.42 µM and 2.59 µM.
In turn, `CCOC(=O)C1=C(C)NC(c2cncs2)=NC1c1ccc(F)cc1Cl` (stereo not shown) [Example 42, ethyl 2-(thiazol-5-yl)-4-(2-chloro-4-fluorophenyl)-6-methyl-1,4-dihydro-pyrimidin-5-carboxylate] returned a melting point of 121 to 125 °C. In the data set on HepG 2.2.15 cells, this compound showed a TD50 of more than 32.90 µM. For the same compound, the IC50 in the data set with HBV DNA was 3.61 µM.
As to `CCOC(=O)C1=C(C)NC(c2cnc(NC(C)=O)s2)=NC1c1ccc(F)cc1Cl` (stereo not shown) [Example 43, ethyl 2-(2-acetylaminothiazol-5-yl)-4-(2-chloro-4-fluorophenyl)-6-methyl-1,4-dihydro-pyrimidin-5-carboxylate], the melting point is more than 250 °C. The compound also returned a TD50 in the data set with HepG 2.2.15 cells of 76.43 µM. Also, the IC50 with HBV DNA came to 2.29 µM.
The matching figures for `CCOC(=O)C1=C(C)NC(c2cnc(N)s2)=NC1c1ccc(F)cc1Cl` (stereo not shown) [Example 44, ethyl 2-(2-aminothiazol-5-yl)-4-(2-chloro-4-fluorophenyl)-6-methyl-1,4-dihydro-pyrimidin-5-carboxylate]: 132 to 135 °C, 22.56 µM and 2.69 µM.
The matching figures for `CCOC(=O)C1=C(C)NC(c2nccn2C)=NC1c1ccc(F)cc1Cl` (stereo not shown) [Example 49, ethyl 2-(N-methyl-1H-imidazol-2-yl)-4-(2-chloro-4-fluorophenyl)-6-methyl-1,4-dihydro-pyrimidin-5-carboxylate]: 166 to 167 °C, 38.83 µM and 0.27 µM.
The matching figures for `CCOC(=O)C1=C(C)NC(c2nccn2Cc2ccccc2)=NC1c1ccc(F)cc1` (stereo not shown) [Example 51, ethyl 2-(N-benzyl-1H-imidazol-2-yl)-4-(4-fluorophenyl)-6-methyl-1,4-dihydro-pyrimidin-5-carboxylate]: 162 to 164 °C, 36.87 µM and 6.65 µM.
In the case of `CCOC(=O)C1=C(C)NC(c2nccn2C)=NC1c1ccc(F)cc1` (stereo not shown) [Example 53, ethyl 2-(N-methyl-1H-imidazol-2-yl)-4-(4-fluorophenyl)-6-methyl-1,4-dihydro-pyrimidin-5-carboxylate], the melting point fell in the range of 134 to 136 °C. In the data set with HepG 2.2.15 cells, the TD50 came out at 281.14 µM. Further, the IC50 in the data set on HBV DNA was 10.2 µM.
In the same order, the values of `COC(=O)C1=C(C)NC(c2c(F)cccc2F)=NC1c1ccc(F)cc1Cl` (stereo not shown) [Example 55, methyl 2-(2,6-difluorophenyl)-4-(2-chloro-4-fluorophenyl)-6-methyl-1,4-dihydro-pyrimidin-5-carboxylate] are 126 to 128 °C, 60.84 µM and 4.01 µM.
In the same order, the values of `CCOC(=O)C1=C(C)NC(c2c(F)cccc2F)=NC1c1ccc(F)cc1Cl` (stereo not shown) [Example 56, ethyl 2-(2,6-difluorophenyl)-4-(2-chloro-4-fluorophenyl)-6-methyl-1,4-dihydro-pyrimidin-5-carboxylate] are 163 to 165 °C, 117.50 µM and 2.03 µM.
`CCOC(=O)C1=C(C)NC(c2c(F)cc(F)cc2F)=NC1c1ccc(F)cc1Cl` (stereo not shown) [Example 58, ethyl 2-(2,4,6-trifluorophenyl)-4-(2-chloro-4-fluorophenyl)-6-methyl-1,4-dihydro-pyrimidin-5-carboxylate] had a melting point of 184 to 186 °C. In the data set on HepG 2.2.15 cells, this compound registered a TD50 of 32.50 µM. Besides, in the data set with HBV DNA, the IC50 came to 2.6 µM.
In the data set with HepG 2.2.15 cells, `CCOC(=O)C1=C(C)NC(c2c(F)cc(F)cc2F)=N[C@H]1c1ccc(F)cc1Cl` [Example 62, ethyl 4-R-(2-chloro-4-fluorophenyl)-2-(2,4,6-trifluorophenyl)-6-methyl-1,4-dihydro-pyrimidin-5-carboxylate] came in with a TD50 of 117.23 µM. Moreover, the IC50 with HBV DNA is 2.01 µM.

The melting point is the temperature of the solid-liquid transition. In general, IC50 refers to the midpoint of a concentration-inhibition curve.

These data come from patent US8168642B2, “Dihydropyrimidine compounds and their uses in preparation of medicaments for treating and preventing antiviral diseases” (Beijing Molecule Science and Technology Co., Ltd., priority 2006, dated 2012).
